# Results taken from patent publication US8697385B1, “Protein controlling synthesis of collagen and associated methods” (Florida State University Research Foundation, Inc., priority 2009, dated 2014).
# Experiments:
# polysomes = assay: Fractionation of polysomes on sucrose gradients; assay type: cell-based, human
# Experimental: ML-7, blebbistatin, cytochalasin B, puromycin, and cycloheximide were purchased from Sigma. ML-7 was used at 40 μM, blebbistatin was used at 100 μM, and cytochalasin B was used at 20 μM. Cells were incubated with the drugs for 16 h before analysis. Puromycin (200 μg/ml) and cycloheximide (100 μg/ml) were added to the cells for 2 h. Human lung fibroblasts have been described previously.16 Scleroderma fibroblasts were purchased from the European Collection of Cell Cultures (cell line BM0070) and derived from the skin of a scleroderma patient. MEFs were derived from knock-in mice in which the 5′SL of the collagen α1(I) gene has been mutated (Parsons et al., submitted). Several independent cell isolates were used throughout the study. All cells were cultured in Dulbecco's modified Eagle's medium supplemented with 10% fetal bovine serum for up to 10 passages. Plasmid constructs and adenovirus preparation. The HA-tagged LARP6 clone and the deletion mutants have been described previously.^16 Adenoviruses were constructed by recloning of the constructs into the pAdCMVTRACK vector, followed by recombination with the pAdEasy vector and amplification, as described previously.^48 Expression of each construct was verified by Western blot analysis. The viruses made express both the full-size test protein and the green fluorescent protein (GFP), which is encoded by an independent transcription unit.^48 Expression of GFP served as control for viral transduction. RT-PCR analysis Total cellular RNA was isolated using an RNA isolation kit (Sigma). RT-PCRs were performed with 100 ng of total RNA or using rTth reverse transcriptase (Boca Scientific, Boca Raton, Fla.). [^32P]dCTP was included in the PCR step to label the products, which were resolved on sequencing gels, as described previously.^8,31,49,50 When RNA from polysomal fractions was analyzed, an equal aliquot of each fraction was used. The number of cycles was adjusted to within the linear range of the reaction. The primers used for RT-PCR were as follows: h-collagen α1(I), 5′ primer […] (SEQ ID NO:3) and 3′ primer […] (SEQ ID NO:4); h-collagen α2(I), 5′ primer […] (SEQ ID NO:5) and 3′ primer […] (SEQ ID NO:6).
# Polysomes were fractionated as described previously.^16 Sucrose fractions (0.5 ml) were collected, and total RNA was extracted by phenol/chloroform and isopropanol precipitation. Equivalent amounts of each fraction were analyzed by RT-PCR. Total proteins were extracted from sucrose fractions by trichloroacetic acid precipitation, and equivalent amounts were analyzed by Western blot analysis.
# One of the roles of nonmuscle myosin filaments may be to present collagen mRNAs to ribosomes. Therefore, we assessed if the association of collagen mRNAs with nonmuscle myosin is dependent on intact polysomes. […] Only the anti-myosin antibody immunoprecipitated collagen α1(I) and α2(I) mRNAs (lane 1). We then immunoprecipitated nonmuscle myosin from lung fibroblasts treated with cycloheximide or puromycin and analyzed if this can change the pull-down of collagen mRNAs. As control, the association with vimentin was analyzed in the same samples (FIG. 9b). […] The association of collagen mRNAs with vimentin increased after the dissociation of polysomes (lanes 3 and 4). […] To assess if nonmuscle myosin copurifies with polysomes, we fractionated polysomes on sucrose gradients^16 and analyzed for the presence of nonmuscle myosin in the fractions using Western blot analysis (FIG. 9f). […]
# scleroderma fibroblasts = assay: Apoptosis of primary scleroderma fibroblasts; assay type: cell-based; conditions: ML-7 did not have an effect
# Description: To assess the role of nonmuscle myosin in collagen synthesis, we disrupted nonmuscle myosin filaments in two different cell types: primary human lung fibroblasts and primary scleroderma skin fibroblasts. These cells are responsible for lung and skin fibrosis. […] To assess the effect of ML-7 on collagen protein synthesis and secretion, we analyzed the levels of collagen α1(I) and α2(I) polypeptides in the intracellularly space and in the medium using Western blot analysis and chain-specific antibodies.^12,15,31-33 ML-7 treatment profoundly affected the secretion of type I collagen, but the effect differed in the two types of primary fibroblasts. […] To assess if the secreted α1(I) polypeptides had been secreted as disulfide-bonded homotrimers, we performed Western blot analysis under nonreducing conditions (FIG. 3d). […] However, since α2(I) polypeptide was absent in the cell medium of ML-7-treated cells, the bands must represent disulfide-bonded collagen α1(I) chains. The α2(I) antibody could not recognize the polypeptide under nonreducing conditions, so we could not directly test its presence in S—S bonded collagen. Since there are reports that ML-7 can cause apoptosis of epithelial cells, we tested if ML-7 caused apoptosis of the primary fibroblasts. […] Therefore, we concluded that increased apoptosis is not responsible for the observed effects of ML-7. […]
smiles,measurement,setting,value
O=S(=O)(c1cccc2c(I)cccc12)N1CCCNCC1 [ML-7],nonmuscle myosin in polysomal fractions,"polysomes; 15-45% sucrose gradient, Western blot, puromycin or ML-7 treatment",decrease in the amount of nonmuscle myosin in the heaviest fractions
same,distribution of collagen α1(I) and α2(I) mRNAs in polysomal fractions,"polysomes; ML-7-treated vs control cells, RT-PCR of fractions",a small fraction of collagen α1(I) and α2(I) mRNAs were shifted into nonpolysomal fractions 16 and 17
same,overall distribution of polysomes,polysomes; ML-7 treatment,did not have an effect
same,total level of collagen α1(I) and α2(I) mRNAs,"polysomes; ML-7 treatment, RT-PCR, sum of all fractions",not significantly affected
same,percentage of apoptotic cells,scleroderma fibroblasts,0.3%
